Assay results reported in ChEMBL document CHEMBL1145309, “Synthesis of biotinylated photoaffinity probes based on arylsulfonamide gamma-secretase inhibitors” (Bioorg Med Chem Lett, 2006).

Columns and labels:
Format in all cases: protein-complex assay
Gamma-secretase = assay: Inhibition of beta amyloid protein 40 production
[1] = target: T1, Gamma-secretase (Homo sapiens) (UniProt Q96BI3+Q9NZ42+Q8WW43+P49768+Q92542+P49810); assay: Inhibition of beta amyloid protein 40 production relative to 4-chloro-N-(2,5-difluorophenyl)-N-(1-(2-(3-(pyrrolidin-1-yl)propoxy)phenyl)ethyl)benzenesulfonamide
[2] = target: T1, Gamma-secretase (Homo sapiens); assay: Inhibition of beta amyloid protein 40 production relative to 4-chloro-N-phenyl-N-(1-(2-(3-(pyrrolidin-1-yl)propoxy)phenyl)ethyl)benzenesulfonamide

Compound | IC50 (Gamma-secretase) [nM] | Ratio IC50 [1] | Ratio IC50 [2]
CC(c1ccc(C(=O)c2ccccc2)cc1OCCCN1CCCC1)N(c1cc(F)c(OCC(=O)NCCCCCCCCNC(=O)CCCC[C@@H]2SC[C@@H]3NC(=O)N[C@@H]32)cc1F)S(=O)(=O)c1ccc(Cl)cc1 (some centres undefined) | 20 | 100 | 
COc1ccc(N(C(C)c2ccccc2OCCCN2CCCC2)S(=O)(=O)c2ccc(Cl)cc2)cc1 (centres undefined) | 1100 | 1.8 | 
CC(c1ccccc1OCCCN1CCCC1)N(c1ccccc1C(=O)c1ccccc1)S(=O)(=O)c1ccc(Cl)cc1 (centres undefined) | 1200 | 1.7 | 
CC(c1ccc(C(=O)c2ccccc2)cc1OCCCN1CCCC1)N(c1cc(F)c(OCC(=O)NCCCCCNC(=O)CCCC[C@@H]2SC[C@@H]3NC(=O)N[C@@H]32)cc1F)S(=O)(=O)c1ccc(Cl)cc1 (some centres undefined) | 10 | 200 | 
CC(c1ccccc1OCCCN1CCCC1)N(c1ccccc1)S(=O)(=O)c1ccccc1 (centres undefined) | 690 |  | 0.01
CC(c1ccccc1OCCCN1CCCC1)N(c1ccccc1)S(=O)(=O)c1ccc(F)cc1 (centres undefined) | 350 |  | 0.03
CC(c1ccccc1OCCCN1CCCC1)N(c1ccc(Cl)cc1)S(=O)(=O)c1ccc(Cl)cc1 (centres undefined) | 1300 | 1.5 | 
COc1cccc(N(C(C)c2ccccc2OCCCN2CCCC2)S(=O)(=O)c2ccc(Cl)cc2)c1 (centres undefined) | 530 | 3.8 | 
COc1ccccc1N(C(C)c1ccccc1OCCCN1CCCC1)S(=O)(=O)c1ccc(Cl)cc1 (centres undefined) | 470 | 4.3 | 
CC(c1ccccc1OCCCN1CCCC1)N(c1ccc(C(=O)c2ccccc2)cc1)S(=O)(=O)c1ccc(Cl)cc1 (centres undefined) | 3200 | 0.6 | 
CC(c1ccccc1OCCCN1CCOCC1)N(c1cc(F)ccc1F)S(=O)(=O)c1ccc(Cl)cc1 (centres undefined) | 4400 |  | 
CC(c1ccc(C(=O)c2ccccc2)cc1OCCCN1CCCC1)N(c1cc(F)ccc1F)S(=O)(=O)c1ccc(Cl)cc1 (centres undefined) | 130 | 15 | 
CC(c1ccccc1OCCCN1CCCC1)N(c1ccccc1)S(=O)(=O)c1ccc(Br)cc1 (centres undefined) | 1900 |  | 0.005
CC(c1ccccc1OCCCN1CCCC1)N(c1ccccc1)S(=O)(=O)c1ccc(C(F)(F)F)cc1 (centres undefined) | 400 |  | 0.03
CCN(CC)CCCOc1ccccc1C(C)N(c1cc(F)ccc1F)S(=O)(=O)c1ccc(Cl)cc1 (centres undefined) | 1000 |  | 
CC(c1ccccc1OCCCN1CCCC1)N(c1cccc(C(=O)c2ccccc2)c1)S(=O)(=O)c1ccc(Cl)cc1 (centres undefined) | 3000 | 0.7 | 
CC(c1ccc(C(=O)c2ccc(COC(=O)NCCCCCCCCNC(=O)CCCC[C@@H]3SC[C@@H]4NC(=O)N[C@@H]43)cc2)cc1OCCCN1CCCC1)N(c1cc(F)ccc1F)S(=O)(=O)c1ccc(Cl)cc1 (some centres undefined) | 6.1 | 328 | 
CC(c1ccccc1OCCCN1CCCC1)N(c1cc(F)ccc1F)S(=O)(=O)c1ccc(Cl)cc1 (centres undefined) | 2000 |  | 
CC(c1ccccc1OCCCN1CCCC1)N(c1ccccc1Cl)S(=O)(=O)c1ccc(Cl)cc1 (centres undefined) | 490 | 4 | 
CC(c1ccc(C(=O)c2ccc(COC(=O)NCCCCCNC(=O)CCCC[C@@H]3SC[C@@H]4NC(=O)N[C@@H]43)cc2)cc1OCCCN1CCCC1)N(c1cc(F)ccc1F)S(=O)(=O)c1ccc(Cl)cc1 (some centres undefined) | 2.9 | 690 | 
CC(c1ccc(C(=O)c2ccccc2)cc1OCCCN1CCCC1)N(c1ccccc1)S(=O)(=O)c1ccc(Cl)cc1 (centres undefined) | 17000 | 0.1 | 
CC(c1ccccc1OCCCN1CCCC1)N(c1ccccc1)S(=O)(=O)c1ccc(Cl)cc1 (centres undefined) | 10 | 200 | 
CC(c1ccccc1OCCCN1CCCCC1)N(c1cc(F)ccc1F)S(=O)(=O)c1ccc(Cl)cc1 (centres undefined) | 2100 |  | 
CC(c1ccccc1OCCCN1CCCC1)N(c1cccc(Cl)c1)S(=O)(=O)c1ccc(Cl)cc1 (centres undefined) | 530 | 3.8 | 
